Test results taken from publication PMC11845477, “Exploring the principles behind antibiotics with limited resistance” (Nature Communications, 2025).

Legend:
[1] = test system: A. baumannii ATCC 17978 (SEN) and A. baumannii ATCC BAA-1605 (MDR); experiment: microbe, parasite or virus in culture; format: cell-based, Acinetobacter baumannii; conditions: for MIC of ancestor: ancestor strain; for MIC: across three biological replicates
Procedure, shortened: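 Cells at 5 × 10^5 per mL in cation-adjusted MHB 2 across 11 to 16-step dilutions, 2 replicates. Relative MIC expressed as MICevolved/MICancestor.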

[2] = test system: E. coli ATCC 25922 (SEN) and E. coli NCTC13846 (MDR); experiment: Adaptive laboratory evolution (ALE), relative MIC of evolved lines; format: cell-based, Escherichia coli; conditions: for Relative MIC (log10): EC-SEN (Escherichia coli ATCC 25922)
Procedure, shortened: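 Ten parallel populations per antibiotic–ancestor pair were evolved in MHB at 37 °C, starting near 50% growth-inhibiting drug. Every 72 h they were passaged into 0.5–2.5× increasing concentrations, keeping the highest-drug well with OD600 > 0.2.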

[3] = Acinetobacter baumannii ATCC 17978 (AB-SEN)
[4] = Acinetobacter baumannii ATCC 17978 (AB-SEN), sheet fig 2a
[5] = Acinetobacter baumannii, Acinetobacter baumannii ATCC 17978 (AB-SEN)
[6] = Acinetobacter baumannii, Acinetobacter baumannii ATCC BAA-1605 (AB-MDR)
[7] = EC-SEN (ATCC 25922), evolved line 1, MIC of evolved line / MIC of ancestor
[8] = EC-SEN (ATCC 25922), evolved line 2, MIC of evolved line / MIC of ancestor
[9] = EC-SEN (ATCC 25922), evolved line 3, MIC of evolved line / MIC of ancestor
[10] = EC-SEN (ATCC 25922), evolved line 4, MIC of evolved line / MIC of ancestor
[11] = EC-SEN (ATCC 25922), evolved line 6, MIC of evolved line / MIC of ancestor
[12] = EC-SEN (ATCC 25922), evolved line 7, MIC of evolved line / MIC of ancestor
[13] = EC-SEN (ATCC 25922), evolved line 8, MIC of evolved line / MIC of ancestor
[14] = EC-SEN (ATCC 25922), evolved line 9, MIC of evolved line / MIC of ancestor
[15] = EC-SEN (ATCC 25922), evolved line 10, MIC of evolved line / MIC of ancestor
[16] = evolved line 2 adapted to the named antibiotic
[17] = evolved line 9 adapted to the named antibiotic
[18] = Escherichia coli ATCC 25922 (EC-SEN), evolved line 1
[19] = Escherichia coli ATCC 25922 (EC-SEN), evolved line 2
[20] = Escherichia coli ATCC 25922 (EC-SEN), evolved line 3
[21] = Escherichia coli ATCC 25922 (EC-SEN), evolved line 4
[22] = Escherichia coli ATCC 25922 (EC-SEN), evolved line 6
[23] = Escherichia coli ATCC 25922 (EC-SEN), evolved line 7
[24] = Escherichia coli ATCC 25922 (EC-SEN), evolved line 8
[25] = Escherichia coli ATCC 25922 (EC-SEN), evolved line 9
[26] = Escherichia coli ATCC 25922 (EC-SEN), evolved line 10

Nc1nc(-n2cc(C(=O)O)c(=O)c3cc(F)c(N4CC(O)C4)c(Cl)c32)c(F)cc1F [Delafloxacin]
MIC of ancestor [1, 3]: 0.0625 µg/mL
MIC of ancestor [1, 4]: 0.0625 µg/mL
MIC [1, 5]: 0.0625 µg/mL
MIC [1, 6]: 8 µg/mL
Relative MIC [2, 7]: 128
Relative MIC [2, 8]: 1024
Relative MIC [2, 9]: 512
Relative MIC [2, 10]: 512
Relative MIC ([2]; EC-SEN (ATCC 25922), evolved line 5, MIC of evolved line / MIC of ancestor): 128
Relative MIC [2, 11]: 1024
Relative MIC [2, 12]: 2048
Relative MIC [2, 13]: 256
Relative MIC [2, 14]: 2048
Relative MIC [2, 15]: 512
Relative MIC (log10) [2, 16]: 3.0103
Relative MIC (log10) ([2]; evolved line 6 adapted to the named antibiotic): 3.0103
Relative MIC (log10) ([2]; evolved line 7 adapted to the named antibiotic): 3.311
Relative MIC (log10) [2, 17]: 3.311
Relative MIC (log10) ([2]; evolved line 10 adapted to the named antibiotic): 2.709
Relative MIC [2, 18]: 128
Relative MIC [2, 19]: 1024
Relative MIC [2, 20]: 512
Relative MIC [2, 21]: 512
Relative MIC ([2]; Escherichia coli ATCC 25922 (EC-SEN), evolved line 5): 128
Relative MIC [2, 22]: 1024
Relative MIC [2, 23]: 2048
Relative MIC [2, 24]: 256
Relative MIC [2, 25]: 2048
Relative MIC [2, 26]: 512

POL7306
MIC [1, 3]: 1 µg/mL
MIC ([1]; Acinetobacter baumannii ATCC BAA-1605 (AB-MDR)): 1 µg/mL
Relative MIC ([2]; ALE, Escherichia coli ATCC 25922 (EC-SEN), evolved line 1): 2
Relative MIC ([2]; ALE, Escherichia coli ATCC 25922 (EC-SEN), evolved line 2): 8
Relative MIC ([2]; ALE, Escherichia coli ATCC 25922 (EC-SEN), evolved line 3): 4
Relative MIC ([2]; ALE, Escherichia coli ATCC 25922 (EC-SEN), evolved line 4): 4
Relative MIC ([2]; ALE, Escherichia coli ATCC 25922 (EC-SEN), evolved line 5): 4
Relative MIC ([2]; ALE, Escherichia coli ATCC 25922 (EC-SEN), evolved line 6): 4
Relative MIC ([2]; ALE, Escherichia coli ATCC 25922 (EC-SEN), evolved line 7): 4
Relative MIC ([2]; ALE, Escherichia coli ATCC 25922 (EC-SEN), evolved line 8): 8
Relative MIC ([2]; ALE, Escherichia coli ATCC 25922 (EC-SEN), evolved line 9): 8
Relative MIC ([2]; ALE, Escherichia coli ATCC 25922 (EC-SEN), evolved line 10): 4
Relative MIC ([2]; ALE, Escherichia coli NCTC 13846 (EC-MDR), evolved line 1): 2
Relative MIC ([2]; ALE, Escherichia coli NCTC 13846 (EC-MDR), evolved line 2): 1
Relative MIC ([2]; ALE, Escherichia coli NCTC 13846 (EC-MDR), evolved line 3): 1
Relative MIC ([2]; ALE, Escherichia coli NCTC 13846 (EC-MDR), evolved line 4): 1
Relative MIC ([2]; ALE, Escherichia coli NCTC 13846 (EC-MDR), evolved line 5): 1
Relative MIC ([2]; ALE, Escherichia coli NCTC 13846 (EC-MDR), evolved line 6): 2
Relative MIC ([2]; ALE, Escherichia coli NCTC 13846 (EC-MDR), evolved line 7): 2
Relative MIC ([2]; ALE, Escherichia coli NCTC 13846 (EC-MDR), evolved line 8): 4
Relative MIC ([2]; ALE, Escherichia coli NCTC 13846 (EC-MDR), evolved line 9): 1
Relative MIC ([2]; ALE, Escherichia coli NCTC 13846 (EC-MDR), evolved line 10): 1

C[C@H]1c2cccc(O)c2C(=O)C2=C(O)[C@]3(O)C(=O)C(C(N)=O)=C(O)[C@@H](N(C)C)[C@@H]3[C@@H](O)[C@@H]21 [Doxycycline]
MIC of ancestor [1, 3]: 0.25 µg/mL
MIC of ancestor [1, 4]: 0.25 µg/mL
MIC [1, 5]: 0.25 µg/mL
MIC [1, 6]: 8 µg/mL
Relative MIC [2, 7]: 32
Relative MIC [2, 8]: 16
Relative MIC [2, 9]: 32
Relative MIC [2, 10]: 128
Relative MIC [2, 11]: 8
Relative MIC [2, 12]: 16
Relative MIC [2, 13]: 32
Relative MIC [2, 14]: 16
Relative MIC [2, 15]: 16
Relative MIC (log10) ([2]; evolved line 1 adapted to the named antibiotic): 1.505
Relative MIC (log10) [2, 16]: 1.204
Relative MIC (log10) ([2]; evolved line 3 adapted to the named antibiotic): 1.505
Relative MIC (log10) ([2]; evolved line 8 adapted to the named antibiotic): 1.505
Relative MIC (log10) [2, 17]: 1.204
Relative MIC [2, 18]: 32
Relative MIC [2, 19]: 16
Relative MIC [2, 20]: 32
Relative MIC [2, 21]: 128
Relative MIC [2, 22]: 8
Relative MIC [2, 23]: 16
Relative MIC [2, 24]: 32
Relative MIC [2, 25]: 16
Relative MIC [2, 26]: 16
